Reference: paper PMC7054359, “Effects of route of administration on oxytocin-induced changes in regional cerebral blood flow in humans” (Nature Communications, 2020)
Where “and” joins values, the source holds several entries; their conditions need not be identical. Equal entries are not always repeated. Where two headings read alike, the source gives them in different places.

Legend:
[1] = cited from earlier work
Excerpt: Human studies almost exclusively target the central OT system by administering synthetic OT using nasal sprays, despite a lack of understanding of the mechanisms underpinning its pharmacodynamic effects. […] The intranasal administration of OT has been favoured under the assumption that once in the nasal cavity, OT can reach the brain directly, bypassing the BBB[13]. […] The first mechanism po ...

[2] = intravenous infusion of labelled synthetic OT; cited from earlier work
Excerpt: (§1) With respect to changes in rCBF induced by the intravenous administration of OT, there may be three possible mediating mechanisms. First, it is possible that peripheral effects of OT on vegetative territories, such as the heart, may be an indirect source of changes in areas of the interoceptive/allostasis network in the human brain, where the dorsal amygdala and the pregenual anterior cingulate cortex assume the role of visceromotor hubs[43].

[3] = intraperitoneal administration, cited from earlier work
Excerpt: as §1, with “hubs[43]. […] The delivery to the paranasal sinuses seems to be increased about 3-5x by using the aerosol pulsation deposition method implemented by the PARI sinus nebuliser(6, 7). The paranasal sinus mucosa is also innervated by the trigeminal nerve which is one of the pathways propo ...” for “hubs[43].”

[4] = Plasma OT pharmacokinetics after intravenous, nasal spray or nebulizer administration (radioimmunoassay after extraction); type: in vivo, humans; design: Plasma OT Concentration, individual participants: unit not given here; settings: for Plasma OT Concentration, individual participants: Condition IV (10 IU), source data of Fig. 6a; for Plasma OT Concentration, individual participants / Bioavailability, individual participants: unit not given; for Bioavailability, individual participants: source data of Fig. 6c, one row per participant; for AUC of plasmatic oxytocin post-dosing / Cmax: 40 IU OT; for AUC of plasmatic oxytocin post-dosing: trapezoidal rule, 120 min post-dosing; for Cmax: healthy men, plasma, radioimmunoassay, read-out: Cmax, maximum plasmatic concentration achieved after dosing
Excerpt: For the intranasal administrations, participants self-administered a nominal dose of 40 IU OT (Syntocinon; 40IU/ml; Novartis, Basel, Switzerland), one of the highest clinically applicable doses. We have shown that 40IU delivered with a standard nasal spray induce robust rCBF changes in the human brain in a between-subjects, single-blind design study. For the intranasal administration, we used specially manufactured placebo that contained the same excipients as Syntocinon except for oxytocin.
The aerosol droplet size of three Syntocinon spray bottles was assessed by laser diffraction (Malvern Spraytec, Malvern Panalytical, Worcestershire, UK). The mass median diameter (MMD) of the aerosol plume was 37 ± 2.5 µm.
PARI SINUS nebulizer: Participants self-administered 40IU OT (Syntocinon) or placebo, by operating the SINUS nebulizer for 3 min in each nostril (6 min in total), according to instructions. The correct application of the device was confirmed by determining gravimetrically the administered volume. Participants were instructed to breathe using only their mouth and to keep a constant breath rate with their soft palate closed, to minimize delivery to the lungs. The PARI SINUS (PARI GmbH, Starnberg, Germany) is designed to deliver aerosolised drugs to the sinus cavities by ventilating the sinuses via pressure fluctuations. The SINUS nebulizer produces an aerosol with 3 µm MMD, which is superimposed with a 44 Hz pulsation frequency. […] The efficacy of this system was first shown in a scintigraphy study by ref. [76]. Since the entrance of the sinuses is located near the olfactory region, an improved delivery to the olfactory region was expected compared to nasal sprays. Other studies[32] have shown up to 9.0% (±1.9%) of the total administered dose to be delivered to the olfactory region, 15.7 (±2.4%) to the upper nose.
For the intravenous administration, we delivered 10IU OT (Syntocinon injection formulation, 10IU/ml, Alliance, UK) or saline via slow infusion over 10 min (1IU/min). A 50-ml syringe was loaded with either 32 ml of 0.9% sodium chloride (placebo) or 30 ml of 0.9% sodium chloride with […] of Syntocinon (10IU/ml). […] The ECG was monitored during the intravenous administration interval. We selected the intravenous dose and rate of administration to assure high plasmatic concentrations of OT throughout the observation period while restricting cardiovascular effects to tolerable and safe limits. A rate of 1IU per minute is typically used in caesarean sections and is considered to have minimised side effects[77],[78].
We collected plasma samples at baseline and at five timepoints post-dosing (as detailed in Fig. 1) to measure changes in the concentration of OT. Plasmatic OT was assayed by radioimmunoassay (RIAgnosis, Munich, Germany) after extraction, currently the gold-standard technique for OT quantifications in peripheral fluids. The detection limit of this assay is in the 0.5 pg/sample range. Cross-reactivity with vasopressin, ring moieties and terminal tripeptides of both OT and vasopressin and a wide variety of peptides comprising […] (alpha-melanocyte-stimulating hormone) up to 41 (corticotrophin-releasing factor) amino acids are <0.7% throughout. The intra- and inter-assay variabilities are <10%[80].
Pharmacokinetic analysis: From the plasmatic concentrations of OT at several timepoints after dosing we calculated the area under the curve (AUC) using the trapezoidal rule for each subject and session. AUC provides a single metric that reflects variations in plasma levels of OT concentration following OT/placebo administration for each session and each participant. […] Mean AUCs were compared between the three methods of administration with a repeated measures one-way analysis of variance, using the Greenhouse-Geisser correction against violations of sphericity. Post-hoc comparisons between methods were implemented using Tukey’s correction for multiple comparisons. […]

In the case of CC[C@H](C)[C@@H]1NC(=O)[C@H](Cc2ccc(O)cc2)NC(=O)[C@@H](N)CSSC[C@@H](C(=O)N2CCC[C@H]2C(=O)N[C@@H](CC(C)C)C(=O)NCC(N)=O)NC(=O)[C@H](CC(N)=O)NC(=O)[C@H](CCC(N)=O)NC1=O [OT, oxytocin], the “Crossing of the blood-brain barrier” value [1] is given as “unable to cross the blood-brain barrier (BBB) in significant amounts”, the “Synthetic OT levels in the CSF” value [2] is given as “increased synthetic OT levels in the CSF” and the “OT concentration in brain extracellular fluid” value ([3]; wild-type and OT knockout mice) is given as “increased the concentration of OT in the extracellular fluid in the amygdala and dorsal hippocampus”. For the same compound, the “Time the concentration in amygdala extracellular fluid remains elevated” value ([3]; ref Smith et al. 2019) was “about 1 h”, the “Time to reach the extracellular fluid in the amygdala” value ([3]; ref Smith et al. 2019) was no more than 30 min and the “Plasma OT Concentration, individual participants” value (“Plasma OT Concentration” below) ([4]; Sample 2) was 65.12 and 59.67 and 47.11. For the same compound, the “Plasma OT Concentration” value ([4]; Sample 3) was 68.1, the “Plasma OT Concentration” value ([4]; Sample 4) was 30.93 and 53.9 and the “Plasma OT Concentration” value ([4]; Sample 6) was 12.86 and 20.71. For the same compound, the “Plasma OT Concentration” value ([4]; Sample 7) was 7.3 and 7.23 and 4.61, the “Plasma OT Concentration” value ([4]; Sample 8) was 3.77 and the “Time of peak plasma concentration” value ([4]; Intravenous, 10 IU) was “at the end of dosing”. The “Time of peak plasma concentration” value ([4]; Nasal spray, 40 IU) was “at the end of dosing”, the “Bioavailability, individual participants” value ([4]; Nebuliser 40 IU) was 31.90 and 10.30 and 3.30 and 7.94 and 12.67 and 62.94 and 5.39 and 6.53 and 8.236 and 4.17 and 6.07 and 5.20 and 6.82 and 10.22 and 6.95 and 32.80 and the “AUC of plasmatic oxytocin post-dosing” value ([4]; PARI SINUS nebulizer, mean (1 SEM)) was 15.30 (2.14) pg.ml-1.h-1. For the same compound, the “Bioavailability, individual participants” value ([4]; Spray 40 IU) was 6.85 and 11.96 and 5.38 and 16.81 and 5.32 and 6.16 and 8.93 and 4.67 and 8.4323 and 12.50 and 14.77 and 6.29 and 7.56 and 11.34 and 5.36 and 37.05, the “AUC of plasmatic oxytocin post-dosing” value ([4]; Standard nasal spray, mean (1 SEM)) was 15.70 (1.97) pg.ml-1.h-1 and the Cmax ([4]; human, in vivo, inhaled or intranasal, 40 IU, PARI SINUS nebulizer, mean (1 SEM)) was 0.0163 ng/mL. For the same compound, the Cmax ([4]; human, in vivo, inhaled or intranasal, 40 IU, Standard nasal spray, mean (1 SEM)) was 0.0158 ng/mL, the Tmax ([4]; human, in vivo, inhaled or intranasal, Nebulizer, 40 IU, post-dosing, read-out: Time of peak plasma concentration (converted)) was roughly 15 min and the bioavailability ([4]; human, in vivo, inhaled or intranasal, Standard nasal spray 40 IU, dose-corrected AUC intranasal / dose-corrected AUC intravenous, mean (1 SEM), read-out: Absolute bioavailability of oxytocin absorbed to the plasma) was 10.6%.
